Test results: US11814352B2, “Salts formed by 2-(1-acyloxy-n-pentyl) benzoic acid and basic amino acid or aminoguanidine, and preparation method and application thereof” (JIANGSU KANION PHARMACEUTICAL CO., LTD., priority 2018, dated 2023)
Read-outs that look alike come from different tables or passages of the source. Marks after values point to notes of the source that are not given here.

What was measured:
[1] = system: AA induced platelet aggregation; assay: In vitro anti-platelet aggregation, AA induced (turbidimetry, PRP); type: cell-based, rabbits
Procedure: (§1) The animals were used for experiments after 1 week.
(§2) The common carotid artery was separated, and a polyethylene tube was inserted into the common carotid artery to collect blood. […] The upper beige suspension was pipetted to obtain the platelet-rich plasma (PRP). […] The PRP was adjusted with the PPP to make the platelet count at 1×10^8/mL.
(§3) 260 μL of platelet-rich plasma (PRP) was added into a turbidimetric tube. Then 10 μL of test compounds with different concentrations, positive control drugs or normal saline were separately added, and the plasma was incubated at 37° C. for 5 min. Then 30 μL of inducers were added in sequence. The final concentration of an inducer ADP is 10 μM, and the final concentration of an inducer AA is 1 mM. […] Inhibition rate of platelet aggregation (IRPA)=(platelet aggregation rate of the control group−platelet aggregation rate of the experimental group)/platelet aggregation rate of the control group×100%.

[2] = system: ADP induced platelet aggregation; assay: In vitro anti-platelet aggregation, ADP induced (turbidimetry, PRP); type: cell-based, rabbits
Procedure: as §1, §2, §3

MCAO rats = assay: Cerebral infarction, cerebral edema and nerve function of rats with focal cerebral ischemia (MCAO); type: in vivo, SD rats; settings: for inhibition at 10 mg/kg/day: Rattus norvegicus
Procedure: The total number of the animals was 88.
Sham operation group: equal volume of normal saline (containing 1% DMSO) (iv. 3 days), TTC, cerebral edema and neurological function score (n=8); […]
The middle cerebral arteries of the rats were blocked by a suture-occluded method, and reperfused after 2 h. […] All drugs were formulated into normal saline solutions containing 1% DMSO for administration, and the duration of administration was controlled at approximately 1 min. […] 2 h after the last administration, the neurological defect scores were firstly obtained, and then the rats of each group were sacrificed. The whole brains were taken out and weighed (wet weight), TTC stained, and dried to determine the effects of the compounds on cerebral infarction and cerebral edema.
2 h after the last administration, the neurological defects of the animals were graded and scored by the Longa's method.
After the neurobehavioral examination was completed, four coronal incisions were made on the whole brains of the rats on the optic chiasma and 2 mm anteroposterior positions of the optic chiasma. After the whole brains were cut into five slices, the brain slices were quickly placed in 5 ml of phosphate buffer solution containing 2% TTC, and incubated at 37° C. in the dark. In the incubation process, the brain slices were turned once every 5 min. After 10 min of incubation, the brain slices were taken out and pictures were taken with a digital camera (Olympus C-4000, Japan).
The calculation formula of brain water content is as follows: Water content of brain tissue (%)=(wet weight of brain tissue−dry weight of brain tissue)/wet weight of brain tissue×100%; Cerebral edema rate (%)=water content of brain tissue of each group (%)−water content of brain tissue of sham operation group (%)/water content of brain tissue of sham operation group (%)×100%; Inhibition rate of cerebral edema (%)=(rate of cerebral edema of model group (%)−rate of cerebral edema of administration group (%))/rate of cerebral edema of model group (%)×100%.

[3] = system: arteriovenous bypass thrombosis in rats; assay: Effect on arteriovenous bypass thrombosis in rats; type: in vivo, SD rats; settings: 10 mg/kg/day tail vein 7 days; for Dry weight of thrombus / Wet weight of thrombus: 2 h after last dose; for inhibition at 10 mg/kg/day: Rattus norvegicus, 168 h
Procedure: Male SD rats, weighing 250-280 g, purchased from Beijing Vital River Laboratory Animal Technology Co., Ltd., raised in an SPF breeding environment with indoor temperature controlled at 23±2° C., and allowed to freely eat and drink. The total number of the animals is 64.
Model group: injected with the same volume of normal saline (containing 1% DMSO) through the tail vein, and administered continuously for 7 days. The test was started 2 h after the last dose (n=8).
The dose of all drugs was 10 mg/kg/day. The drugs were formulated into normal saline solutions containing 1% DMSO, and injected through the tail vein for 7 consecutive days. The test was started 2 hours after the last dose (n=8).
The rats were intraperitoneally injected with a 3% pentobarbital sodium solution (30 mg/kg). After anesthesia, the rats were immobilized in the supine position, and a median cervical incision was made to separate the right common carotid artery and left external jugular vein. A 6 cm long suture was put in the middle of a polyethylene tube (the suture needs to be weighed before being put in the tube), and the polyethylene tube was filled with heparin saline (50 U/mL). The polyethylene tube was inserted into the separated blood vessels to make the artery and vein form a loop. After 15 min of circulation of the blood flow, the suture was taken out, and the suture with thrombus was collected and weighed immediately. Then, after the suture was dried at room temperature for 24 h, the dry weight was determined. The total weight minus the weight of the suture was the wet weight of the thrombus, and the dry weight minus the weight of the suture was the dry weight of the thrombus.

[4] = read-out: IC50 AA (1 mM), rabbit PRP, inducer AA 1 mM, 37° C.
[5] = read-out: IC50 ADP (10 μM), rabbit PRP, inducer ADP 10 μM, 37° C.
[6] = iv 2 h after the beginning of reperfusion, 5 mg/kg
[7] = iv 2 h after the beginning of reperfusion, 10 mg/kg
[8] = iv 2 h after the beginning of reperfusion, 20 mg/kg
[9] = iv at the beginning of reperfusion, 5 mg/kg
[10] = iv at the beginning of reperfusion, 10 mg/kg
[11] = iv at the beginning of reperfusion, 20 mg/kg
[12] = MCAO rats, 10 mg/kg/day iv 3 days (combinations equimolar), first dose 2 h after reperfusion
[13] = Oryctolagus cuniculus, Platelet, read-out: IC50 AA (1 mM), rabbit PRP, inducer AA 1 mM, 37° C.
[14] = Oryctolagus cuniculus, Platelet, read-out: IC50 ADP (10 μM), rabbit PRP, inducer ADP 10 μM, 37° C.
[15] = MCAO rats, 10 mg/kg/day iv 3 days (combinations equimolar), first dose 2 h after reperfusion, read-out: Inhibition rate of cerebral edema
[16] = MCAO rats, 10 mg/kg/day iv 3 days (combinations equimolar), first dose 2 h after reperfusion, read-out: Inhibition rate of infarct volume
[17] = vs model group, read-out: Inhibition rate (dry weight of thrombus)
[18] = vs model group, read-out: Inhibition rate (wet weight of thrombus)

## CCCCC(OC(C)=O)c1ccccc1C(=O)O (racemic) [(R/S)-APB, (R/S)-2-(1-acetoxy-n-pentyl)benzoic acid]
[1]; [4]
  IC50: 470 ± 40 µM
[2]; [5]
  IC50: 810 ± 40 µM

## CCCCC(O)c1ccccc1C(=O)O.N=C(N)NCCC[C@H](N)C(=O)O (racemic) [AHPB, L-Arginine (R/S)-2-(1-Hydroxy-n-Pentyl) Benzoate]
[1]; [4]
  IC50: 340 ± 40 µM
[2]; [5]
  IC50: 980 ± 210 µM
MCAO rats; [6]
  Cerebral edema: 6.50 ± 1.86%
  Infarct volume: 37.54 ± 6.94%
  Inhibition rate of cerebral edema: 31.12%
  Inhibition rate of infarct volume: 24.34%
MCAO rats; [7]
  Cerebral edema: 3.03 ± 2.87%
  Infarct volume: 25.70 ± 4.75%
  Inhibition rate of cerebral edema: 67.94%
  Inhibition rate of infarct volume: 48.19%
MCAO rats; [8]
  Cerebral edema: 1.64 ± 3.36%
  Infarct volume: 23.56 ± 5.29%
  Inhibition rate of cerebral edema: 82.57%
  Inhibition rate of infarct volume: 52.51%
MCAO rats; [9]
  Cerebral edema: 5.94 ± 2.45%
  Infarct volume: 29.98 ± 4.99%
  Inhibition rate of cerebral edema: 38.82%
  Inhibition rate of infarct volume: 39.06%
MCAO rats; [10]
  Cerebral edema: 2.01 ± 2.91%
  Infarct volume: 19.83 ± 3.95%
  Inhibition rate of cerebral edema: 79.34%
  Inhibition rate of infarct volume: 59.69%
MCAO rats; [11]
  Cerebral edema: 2.08 ± 4.58%
  Infarct volume: 17.71 ± 4.65%
  Inhibition rate of cerebral edema: 78.57%
  Inhibition rate of infarct volume: 64.00%
MCAO rats; low-dose 5 mg/kg iv, at reperfusion or 2 h after
  Effects of improving cerebral infarction, cerebral edema and neurological function compared with NBP (5 mg/kg): no significant difference
MCAO rats; middle and high doses 10, 20 mg/kg iv
  Improving the neurological function compared with NBP (5 mg/kg): equivalent to NBP (5 mg/kg)

## CCCCC(OC(C)=O)c1ccccc1C(=O)O.N=C(N)NCCC[C@H](N)C(=O)O (racemic) [I1, L-Arginine (R/S)-2-(1-Acetoxy-n-Pentyl) Benzoate]
[1]; [4]
  IC50: 180 ± 30 µM
[2]; [5]
  IC50: 740 ± 90 µM
MCAO rats; [12]
  Cerebral edema: 4.97 ± 3.30%
  Infarct volume: 16.11 ± 2.74%
  Inhibition rate of cerebral edema: 69.00%
  Inhibition rate of infarct volume: 61.50%
[3]
  Dry weight of thrombus: 7.64 ± 0.40
  Wet weight of thrombus: 25.81 ± 2.20**^
[3]; vs model group
  Inhibition rate (dry weight of thrombus): 23.94%
  Inhibition rate (wet weight of thrombus): 28.72%

## CCCCC(OC(=O)CC)c1ccccc1C(=O)O (racemic) [I2, L-Arginine (R/S)-2-(1-Propionyloxy-n-Pentyl) Benzoate]
[1]; [13]
  IC50: 190 ± 20 µM
[2]; [14]
  IC50: 650 ± 40 µM

## CCCCC(OC(=O)CCC)c1ccccc1C(=O)O (racemic) [I3, L-Arginine (R/S)-2-(1-N-Butyryloxy-n-Pentyl) Benzoate]
[1]; [13]
  IC50: 520 ± 30 µM
[2]; [14]
  IC50: 1260 ± 70 µM

## CCCCC(OC(=O)c1ccccc1)c1ccccc1C(=O)O (racemic) [I4, L-Arginine (R/S)-2-(1-Benzoyloxy-n-Pentyl) Benzoate]
[1]; [4]
  IC50: 170 ± 70 µM
[2]; [5]
  IC50: 820 ± 50 µM

## CCCCC(OC(C)=O)c1ccccc1C(=O)O (racemic) [I5, L-Lysine (R/S)-2-(1-Acetoxy-n-Pentyl) Benzoate]
[1]; [13]
  IC50: 460 ± 30 µM
[2]; [14]
  IC50: 1150 ± 80 µM

## CCCCC(OC(C)=O)c1ccccc1C(=O)O.N[C@@H](Cc1c[nH]cn1)C(=O)O (racemic) [I6, L-Histidine (R/S)-2-(1-Acetoxy-n-Pentyl) Benzoate]
[1]; [4]
  IC50: 140 ± 10 µM
[2]; [5]
  IC50: 770 ± 50 µM

## CCCCC(OC(C)=O)c1ccccc1C(=O)O.N=C(N)NN (racemic) [I7, Aminoguanidine (R/S)-2-(1-Acetoxy-n-Pentyl) Benzoate]
[1]; [4]
  IC50: 280 ± 70 µM
[2]; [5]
  IC50: 1180 ± 60 µM

## CCCC[C@@H](OC(C)=O)c1ccccc1C(=O)O [(R)-APB, (R)-2-(1-acetoxy-n-pentyl)benzoic acid]
[1]; [13]
  IC50: 190 ± 20 µM
[2]; [14]
  IC50: 760 ± 70 µM

## CCCC[C@H]1OC(=O)c2ccccc21 [(R)-NBP, (R)-butylphthalide]
[1]; [4]
  IC50: 660 ± 70 µM
[2]; [5]
  IC50: 1600 ± 150 µM

## CC1=NN(c2ccccc2)C(=O)C1 [Edaravone]
MCAO rats; [12]
  Cerebral edema: 4.49 ± 4.84%
  Infarct volume: 14.29 ± 2.58%
MCAO rats; [15]
  inhibition at 10 mg/kg/day: 72%
MCAO rats; [16]
  inhibition at 10 mg/kg/day: 65.8%
[3]
  Dry weight of thrombus: 8.23 ± 0.53
  Wet weight of thrombus: 24.95 ± 1.20
[3]; [17]
  inhibition at 10 mg/kg/day: 18.1%
[3]; [18]
  inhibition at 10 mg/kg/day: 31.1%

## CCCC[C@@H](OC(C)=O)c1ccccc1C(=O)O [I1r, L-Arginine (R)-2-(1-Acetoxy-n-Pentyl) Benzoate]
[1]; [4]
  IC50: 180 ± 30 µM
[2]; [5]
  IC50: 730 ± 70 µM
MCAO rats; [12]
  Cerebral edema: 10.72 ± 4.19%
  Infarct volume: 20.14 ± 2.95%
MCAO rats; [15]
  inhibition at 10 mg/kg/day: 33.2%
MCAO rats; [16]
  inhibition at 10 mg/kg/day: 51.9%
[3]
  Dry weight of thrombus: 8.51 ± 0.18
[3]; [17]
  inhibition at 10 mg/kg/day: 15.2%
[3]; [18]
  inhibition at 10 mg/kg/day: 18.4%

## CCCC[C@@H](OC(C)=O)c1ccccc1C(=O)O.N=C(N)NN [I7r, Aminoguanidine (R)-2-(1-Acetoxy-n-Pentyl) Benzoate]
[1]; [4]
  IC50: 210 ± 10 µM
[2]; [5]
  IC50: 940 ± 50 µM

## CCCC[C@H](OC(C)=O)c1ccccc1C(=O)O.N=C(N)NN [I7s, Aminoguanidine (S)-2-(1-Acetoxy-n-Pentyl) Benzoate]
[1]; [4]
  IC50: 120 ± 10 µM
[2]; [5]
  IC50: 680 ± 30 µM
MCAO rats; [12]
  Cerebral edema: 12.34 ± 4.57%
  Infarct volume: 24.83 ± 2.02%
  Inhibition rate of cerebral edema: 23.07%
  Inhibition rate of infarct volume: 40.67%

## N=C(N)NCCC[C@H](N)C(=O)O [L-arginine]
[1]; [13]
  IC50: 5130 ± 650 µM
[2]; [14]
  IC50: 5860 ± 690 µM
